{"source": "patent US20130252813A1", "about": "“Herbicidal Compositions for Tolerant or Resistant Sugar Beet Crops” (Bayer CropScience AG, priority 1998, published 2013)", "type_in_all_cases": "in vivo", "key": {"[1]": {"test_system": "Setaria viridis", "experiment": "Herbicidal action in sugar beet - field trial (Table 2)", "conditions": "application in 2-4-leaf stage, scoring 3 weeks after application", "method": "(§1) Transgenic sugar beet plants with resistance to one or more herbicides (A) were grown together with typical weed plants in the open in 2×5 m plots under natural field conditions; alternatively, the weed population established naturally while the sugar beet plants grew. Treatment with the compositions according to the invention and, for control purposes, with separate application of the active ingredients of the components alone, was carried out under standard conditions with a plot sprayer at an application rate of 200-300 liters of water per hectare in parallel trials in accordance with the scheme of Table 1, i.e. pre-sowing/pre-emergence, […] or post-emergence at the early, medium or late stage.\n(§2) […] Damage and development of all aerial plant organs was recorded. The scoring was done using a percentage scale (100% activity=all plants dead; 50% activity=50% of the plants and green plant organs dead; 0% activity=no discernible effect=like control plot). The score values of in each case 4 plots were averaged."}, "[2]": {"test_system": "transgenic sugar beet", "experiment": "Damage to transgenic sugar beet - field trial (Table 2)", "conditions": "application in 2-4-leaf stage", "method": "as §1\n(§3) At 2, 4, 6 and 8 week intervals after application, the herbicidal activity of the active ingredients or active ingredient mixtures were scored visually by comparing the treated plots with untreated control plots. Damage and development of all aerial plant organs was recorded. The scoring was done using a percentage scale (100% activity=all plants dead; 50% activity=50% of the plants and green plant organs dead; 0% activity=no discernible effect=like control plot). The score values of in each case 4 plots were averaged."}, "[3]": {"test_system": "Galium aparine", "experiment": "Herbicidal action in sugar beet crop (greenhouse experiment, Table 3)", "conditions": "application in the 4-5-leaf stage, scoring 3 weeks after application", "excerpt": "Seeds or rhizomes of monocotyledonous and dicotyledonous weeds are placed in sandy loam soil in cardboard pots, covered with soil and grown in the greenhouse under good growth conditions. […] The compositions according to the\nInvention, which are formulated as wettable powders or as emulsion concentrates, are sprayed at various dosages onto the green plant organs at an application rate of 600 to 800 l of water per ha (converted). After the experimental plants have remained in the greenhouse for approx. 3 to 4 weeks under optimal growth conditions, the effect of the preparations is scored visually in comparison with untreated controls. The compositions according to the invention also have a good herbicidal activity against a broad spectrum of economically Important grass weeds and broad-leaved weeds when applied post-emergence."}, "[4]": {"test_system": "transgenic sugar beet", "experiment": "Damage to transgenic sugar beet (greenhouse experiment, Table 3)", "conditions": "greenhouse Table 3, application in the 4-5-leaf stage"}, "[5]": {"test_system": "Echinochloa crus-galli", "experiment": "Herbicidal action and selectivity in sugar beet crop (field trial, Table 4)", "conditions": "application in 3-leaf stage, scoring 4 weeks after application", "method": "as §1, §3"}, "[6]": {"test_system": "transgenic sugar beet", "experiment": "Damage to transgenic sugar beet (field trial, Table 4)", "conditions": "application in 3-leaf stage", "method": "as §1, §3"}, "[7]": {"test_system": "Avena fatua", "experiment": "Herbicidal action and selectivity in sugar beet crop (field trial, Table 5)", "conditions": "application in the 3-5-leaf stage, scoring 4 weeks after application", "method": "as §1, §3"}, "[8]": {"test_system": "transgenic sugar beet", "experiment": "Damage to transgenic sugar beet (field trial, Table 5)", "conditions": "application in the 3-5-leaf stage", "method": "as §1, §3"}, "[9]": {"test_system": "Galium aparine", "experiment": "Herbicidal action (field trial, Table 6)", "conditions": "application in the 3-5-leaf stage, scoring 4 weeks after application", "method": "as §1, §3"}, "[10]": {"test_system": "Kochia scoparia", "experiment": "Herbicidal action (field trial, Table 6)", "conditions": "application in the 3-5-leaf stage, scoring 4 weeks after application", "method": "as §1, §3"}, "[11]": {"test_system": "Amaranthus retroflexus", "experiment": "Herbicidal action (field trial, sequential treatment, Table 8)", "conditions": "dose 200 g A.S./ha post-emergence at the 2-3-leaf stage; scorings 22 days after application", "method": "as §1, §2"}, "[12]": {"test_system": "Setaria viridis", "experiment": "Herbicidal action (field trial, sequential treatment, Table 8)", "conditions": "dose 200 g A.S./ha post-emergence at the 2-3-leaf stage; scorings 22 days after application", "method": "as §1, §2"}}, "note": "Where a name gives a salt, the structure may show the parent alone."}
{"smiles": "CP(=O)(O)CCC(N)C(=O)O", "note": "(stereo not shown) [(A1.2), glufosinate monoammonium salt]", "values": [{"measurement": "Herbicidal action in % against Setaria viridis", "setting": "[1]; dose 37.5 g A.S./ha", "value": 35, "unit": "%"}, {"measurement": "Herbicidal action in % against Setaria viridis", "setting": "[1]; dose 75 g A.S./ha", "value": 85, "unit": "%"}, {"measurement": "Herbicidal action in % against Setaria viridis", "setting": "[1]; dose 150 g A.S./ha", "value": 95, "unit": "%"}, {"measurement": "Herbicidal action in % against Setaria viridis", "setting": "[1]; dose 300 g A.S./ha", "value": 98, "unit": "%"}, {"measurement": "Damage to transgenic sugar beet", "setting": "[2]; dose 37.5 g A.S./ha", "value": 0}, {"measurement": "Damage to transgenic sugar beet", "setting": "[2]; dose 75 g A.S./ha", "value": 0}, {"measurement": "Damage to transgenic sugar beet", "setting": "[2]; dose 150 g A.S./ha", "value": 0}, {"measurement": "Damage to transgenic sugar beet", "setting": "[2]; dose 300 g A.S./ha", "value": 0}, {"measurement": "Herbicidal action in % against Galium aparine", "setting": "[3]; dose 125 g A.S./ha", "value": 45, "unit": "%"}, {"measurement": "Herbicidal action in % against Galium aparine", "setting": "[3]; dose 250 g A.S./ha", "value": 60, "unit": "%"}, {"measurement": "Herbicidal action in % against Galium aparine", "setting": "[3]; dose 500 g A.S./ha", "value": 85, "unit": "%"}, {"measurement": "Damage to transgenic sugar beet", "setting": "[4]; dose 125 g A.S./ha", "value": 0}, {"measurement": "Damage to transgenic sugar beet", "setting": "[4]; dose 250 g A.S./ha", "value": 0}, {"measurement": "Damage to transgenic sugar beet", "setting": "[4]; dose 500 g A.S./ha", "value": 0}, {"measurement": "Herbicidal action in % against Echinochloa crus-galli", "setting": "[5]", "value": 45, "unit": "%"}, {"measurement": "Herbicidal action in % against Echinochloa crus-galli", "setting": "[5]; dose 10 g A.S./ha", "value": 60, "unit": "%"}, {"measurement": "Herbicidal action in % against Echinochloa crus-galli", "setting": "[5]; dose 65 g A.S./ha", "value": 85, "unit": "%"}, {"measurement": "Damage to transgenic sugar beet", "setting": "[6]; dose 0 g A.S./ha", "value": 0}, {"measurement": "Damage to transgenic sugar beet", "setting": "[6]; dose 10 g A.S./ha", "value": 0}, {"measurement": "Damage to transgenic sugar beet", "setting": "[6]; dose 65 g A.S./ha", "value": 0}, {"measurement": "Herbicidal action in % against Avena fatua", "setting": "[7]; dose 150 g A.S./ha", "value": 30, "unit": "%"}, {"measurement": "Herbicidal action in % against Avena fatua", "setting": "[7]; dose 300 g A.S./ha", "value": 65, "unit": "%"}, {"measurement": "Herbicidal action in % against Avena fatua", "setting": "[7]; dose 600 g A.S./ha", "value": 95, "unit": "%"}, {"measurement": "Damage to transgenic sugar beet", "setting": "[8]; dose 150 g A.S./ha", "value": 0}, {"measurement": "Damage to transgenic sugar beet", "setting": "[8]; dose 300 g A.S./ha", "value": 0}, {"measurement": "Damage to transgenic sugar beet", "setting": "[8]; dose 600 g A.S./ha", "value": 0}, {"measurement": "Herbicidal action in % against Galium aparine", "setting": "[9]; dose 250 g A.S./ha", "value": 20, "unit": "%"}, {"measurement": "Herbicidal action in % against Galium aparine", "setting": "[9]; dose 300 g A.S./ha", "value": 40, "unit": "%"}, {"measurement": "Herbicidal action in % against Galium aparine", "setting": "[9]; dose 600 g A.S./ha", "value": 85, "unit": "%"}, {"measurement": "Herbicidal action in % against Kochia scoparia", "setting": "[10]; dose 250 g A.S./ha", "value": 30, "unit": "%"}, {"measurement": "Herbicidal action in % against Kochia scoparia", "setting": "[10]; dose 300 g A.S./ha", "value": 52, "unit": "%"}, {"measurement": "Herbicidal action in % against Kochia scoparia", "setting": "[10]; dose 600 g A.S./ha", "value": 75, "unit": "%"}, {"measurement": "Herbicidal action in % against Amaranthus retroflexus", "setting": "[11]", "value": 55, "unit": "%"}, {"measurement": "Herbicidal action in % against Setaria viridis", "setting": "[12]", "value": 60, "unit": "%"}]}
